According to ChEMBL document CHEMBL1155060, “Discovery of brain penetrant, soluble, pyrazole amide EP1 receptor antagonists” (Bioorg Med Chem Lett, 2008):
In brackets after ≈: the same amount, converted by molar mass. Blank lines part the entries; values can stand above or below the molecule they belong to.

Columns and labels:
Liver microsomes = test: Metabolic stability assessed as intrinsic clearance in rat liver microsomes; format: ADME, Microsome
[1] = Blood clearance in rat at 1 mg/kg, iv; format: ADME, organism-based; parameters: dose 1 mg/kg, route intravenous
[2] = Volume of distribution at steady state in rat at 1 mg/kg, iv; format: ADME, organism-based; parameters: dose 1 mg/kg, route intravenous; details: in vivo, read-out: Vdss
[3] = Half life in rat at 1 mg/kg, iv; format: ADME, organism-based; parameters: dose 1 mg/kg, route intravenous; details: in vivo
[4] = Lipophilicity, log D of the compound; format: physicochemical; details: octanol/water
[5] = Solubility in water after 0.5 hrs; format: physicochemical
[6] = Solubility in simulated gastric fluid after 0.5 hrs; format: physicochemical
[7] = Solubility in fasted state simulated intestinal fluid after 0.5 hrs; format: physicochemical
[8] = Solubility in fed state simulated intestinal fluid after 0.5 hrs; format: physicochemical
[9] = biological target: T1, Prostaglandin E2 receptor EP1 subtype (Homo sapiens, UniProt P34995); test: Displacement of [H3PGE2 from human EP1 receptor expressed in CHOK1 cells; format: cell-based, CHO-K1
T1 sequence (P34995 whole entry): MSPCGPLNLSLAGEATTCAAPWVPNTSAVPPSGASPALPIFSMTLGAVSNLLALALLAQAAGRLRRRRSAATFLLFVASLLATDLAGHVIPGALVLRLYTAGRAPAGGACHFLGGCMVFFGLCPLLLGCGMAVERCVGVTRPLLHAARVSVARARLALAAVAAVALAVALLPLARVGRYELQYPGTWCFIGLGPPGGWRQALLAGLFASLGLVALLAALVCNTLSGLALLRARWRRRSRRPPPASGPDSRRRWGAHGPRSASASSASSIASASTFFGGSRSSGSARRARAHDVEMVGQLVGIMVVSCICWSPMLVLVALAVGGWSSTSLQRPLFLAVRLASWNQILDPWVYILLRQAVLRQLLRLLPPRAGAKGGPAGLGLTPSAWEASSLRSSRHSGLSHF

[10] = biological target: T1, Prostaglandin E2 receptor EP1 subtype; test: Antagonist activity of human PGE2 receptor expressed in CHOK1 cells assessed as inhibition of intracellular calcium mobilisation by FLIPR assay; format: functional, cell-based, CHO-K1
[11] = Solubility in water after 1 hr; format: physicochemical
[12] = Solubility in fed state simulated intestinal fluid after 1 hr; format: physicochemical
[13] = Ratio of drug level in brain to blood in rat at 5 mg/kg, po after 3 hrs; format: ADME, organism-based; parameters: dose 5 mg/kg, route oral
[14] = Permeability across MDCK cells; format: ADME, cell-based, Canis lupus familiaris; details: dog, read-out: permeability
[15] = Solubility in fasted state simulated intestinal fluid after 1 hr; format: physicochemical
[16] = Ratio of drug level in brain to blood in rat at 10 mg/kg, po after 1 hr; format: ADME, organism-based; parameters: dose 10 mg/kg, route oral
[17] = Ratio of drug level in brain to blood in rat at 3 mg/kg, po after 3 hrs; format: ADME, organism-based; parameters: dose 3 mg/kg, route oral
[18] = Solubility in water after 2 hrs; format: physicochemical
[19] = Solubility in fed state simulated intestinal fluid after 2 hrs; format: physicochemical
[20] = Drug level in rat blood at 10 mg/kg, po after 1 hr; format: ADME, organism-based; parameters: dose 10 mg/kg, route oral; details: read-out: Drug uptake
[21] = Drug level in rat blood at 3 mg/kg, po after 3 hrs; format: ADME, organism-based; parameters: dose 3 mg/kg, route oral; details: read-out: Drug uptake
[22] = Solubility in simulated gastric fluid after 2 hrs; format: physicochemical
[23] = Solubility in fasted state simulated intestinal fluid after 2 hrs; format: physicochemical
[24] = Solubility in simulated gastric fluid after 1 hr; format: physicochemical

CL (Liver microsomes): 7.3 mL/min/g
clearance [1]: 50 mL/min/kg
Vd [2]: 4.1 L/kg
half-life [3]: 2.5 h
logD [4]: > 3.7
solubility at 0.5 h [5]: 2 µg/mL (≈ 4.63 µM)
solubility at 0.5 h [6]: 2 µg/mL (≈ 4.63 µM)
solubility at 0.5 h [7]: 38 µg/mL (≈ 88 µM)
solubility at 0.5 h [8]: 50 µg/mL (≈ 116 µM)
SMILES: Cc1cc(NC(=O)c2ccccc2)nn1Cc1cc(Cl)ccc1OCc1ccccc1

logD [4]: 1
SMILES: Cc1cc(C(=O)O)nn1Cc1cc(Cl)ccc1OCc1ccccc1

CL (Liver microsomes): 12 mL/min/g
logD [4]: > 3.7
SMILES: Cc1cc(C(=O)Nc2ccccc2)nn1Cc1cc(Cl)ccc1OCc1ccccc1

IC50 [9]: 0.0126 µM
SMILES: Cc1cc(NC(=O)c2ccc(CO)cc2)nn1Cc1cc(Cl)ccc1OCC(C)C

IC50 [9]: 0.01 µM
Ki [10]: 0.0794 µM
SMILES: Cc1cc(C(=O)Nc2ccc(CN3CCOCC3)cc2)nn1Cc1cc(Cl)ccc1OCc1ccccc1

IC50 [9]: 0.0126 µM
SMILES: Cc1cc(C(=O)Nc2ccc(CN3CCCC3)cc2)nn1Cc1cc(Cl)ccc1OCc1ccccc1

IC50 [9]: 0.0251 µM
SMILES: Cc1cc(NC(=O)c2ccccc2CO)nn1Cc1cc(Cl)ccc1OCC(C)C

IC50 [9]: 0.0126 µM
solubility at 1 h [11]: 373 µg/mL
solubility at 1 h [12]: 64 µg/mL
SMILES: Cc1cc(C(=O)Nc2ccc(CN3CCCCC3)cc2)nn1Cc1cc(Cl)ccc1OCc1ccccc1.Cl

IC50 [9]: 0.0126 µM
Ki [10]: 0.126 µM
CL (Liver microsomes): 1.8 mL/min/g
clearance [1]: 46 mL/min/kg
Vd [2]: 9.7 L/kg
half-life [3]: 3 h
Kp at 3 h [13]: 1.4
Papp [14]: 31.8 ×10⁻⁶ cm/s
solubility at 1 h [11]: 253 µg/mL
solubility at 1 h [15]: 57 µg/mL
solubility at 1 h [12]: 185 µg/mL
SMILES: CNCc1ccc(NC(=O)c2cc(C)n(Cc3cc(Cl)ccc3OCc3ccccc3)n2)cc1.Cl

IC50 [9]: 0.0126 µM
SMILES: CCNCc1ccc(NC(=O)c2cc(C)n(Cc3cc(Cl)ccc3OCc3ccccc3)n2)cc1

IC50 [9]: 0.00794 µM
SMILES: Cc1cc(C(=O)Nc2ccc(CN(C)C)cc2)nn1Cc1cc(Cl)ccc1OCc1ccccc1

IC50 [9]: 0.631 µM
SMILES: Cc1cc(NC(=O)c2cccc(CN(C)C)c2)nn1Cc1cc(Cl)ccc1OCC(C)C

IC50 [9]: 0.126 µM
SMILES: Cc1cc(NC(=O)c2cccc(CN3CCCC3)c2)nn1Cc1cc(Cl)ccc1OCC(C)C

IC50 [9]: 0.1 µM
SMILES: Cc1cc(NC(=O)c2ccc(CN(C)C)cc2)nn1Cc1cc(Cl)ccc1OCC(C)C

IC50 [9]: 0.0501 µM
Ki [10]: 0.158 µM
CL (Liver microsomes): 3.2 mL/min/g
clearance [1]: 46 mL/min/kg
Vd [2]: 4.6 L/kg
half-life [3]: 1.4 h
Kp at 1 h [16]: 1.2
Kp at 3 h [17]: 2
Papp [14]: 36 ×10⁻⁶ cm/s
solubility at 2 h [18]: > 1000 µg/mL
solubility at 2 h [19]: 520 µg/mL
SMILES: Cc1cc(NC(=O)c2ccc(CN3CCCC3)cc2)nn1Cc1cc(Cl)ccc1OCC(C)C.Cl

IC50 [9]: 0.1 µM
Ki [10]: 0.158 µM
CL (Liver microsomes): 1.8 mL/min/g
clearance [1]: 29 mL/min/kg
Vd [2]: 6.3 L/kg
half-life [3]: 2.8 h
Kp at 1 h [16]: 0.8
Kp at 3 h [17]: 0.9
concentration at 1 h [20]: 107 nM
concentration at 3 h [21]: 114 nM
Papp [14]: 52.1 ×10⁻⁶ cm/s
solubility at 2 h [18]: 690 µg/mL
solubility at 2 h [22]: 62 µg/mL
solubility at 2 h [23]: 14 µg/mL
solubility at 2 h [19]: 154 µg/mL
SMILES: CCNCc1ccc(C(=O)Nc2cc(C)n(Cc3cc(Cl)ccc3OCC(C)C)n2)cc1.Cl

IC50 [9]: 0.501 µM
SMILES: Cc1cc(NC(=O)c2cccc(CN3CCCCC3)c2)nn1Cc1cc(Cl)ccc1OCC(C)C

IC50 [9]: 0.00794 µM
Ki [10]: 0.0794 µM
solubility at 1 h [11]: 474 µg/mL
solubility at 1 h [24]: 364 µg/mL
solubility at 1 h [15]: 483 µg/mL
solubility at 1 h [12]: 589 µg/mL
SMILES: CNCc1ccc(NC(=O)c2cc(C)n(Cc3cc(Cl)ccc3OCC(C)C)n2)cc1.Cl

IC50 [9]: 0.00501 µM
SMILES: Cc1cc(C(=O)Nc2ccc(CN(C)C)cc2)nn1Cc1cc(Cl)ccc1OCC(C)C

IC50 [9]: 0.0398 µM
solubility at 2 h [18]: > 1000 µg/mL
solubility at 2 h [22]: 30 µg/mL
solubility at 2 h [23]: 90 µg/mL
solubility at 2 h [19]: 240 µg/mL
SMILES: Cc1cc(NC(=O)c2ccc(CN3CCCCC3)cc2)nn1Cc1cc(Cl)ccc1OCC(C)C.Cl

IC50 [9]: 0.1 µM
SMILES: Cc1cc(NC(=O)c2ccc3c(c2)CCN(C(C)C)C3)nn1Cc1cc(Cl)ccc1OCC(C)C

IC50 [9]: 0.00631 µM
solubility at 1 h [11]: 811 µg/mL
solubility at 1 h [24]: 662 µg/mL
solubility at 1 h [15]: 164 µg/mL
solubility at 1 h [12]: 315 µg/mL
SMILES: Cc1cc(C(=O)Nc2ccc(CN3CCCCC3)cc2)nn1Cc1cc(Cl)ccc1OCC(C)C.Cl

IC50 [9]: 0.0398 µM
Ki [10]: 0.126 µM
SMILES: Cc1cc(NC(=O)c2ccc3c(c2)CCNC3)nn1Cc1cc(Cl)ccc1OCC(C)C

IC50 [9]: 0.0501 µM
SMILES: Cc1cc(NC(=O)c2ccc(C(C)NCC(C)C)cc2)nn1Cc1cc(Cl)ccc1OCC(C)C (configuration not stated)

IC50 [9]: 0.0501 µM
SMILES: Cc1cc(NC(=O)c2ccc(C(C)N3CCCC3)cc2)nn1Cc1cc(Cl)ccc1OCC(C)C (configuration not stated)

IC50 [9]: 0.00631 µM
SMILES: Cc1cc(C(=O)Nc2ccc(CN3CCCC3)cc2)nn1Cc1cc(Cl)ccc1OCC(C)C

IC50 [9]: 0.1 µM
Ki [10]: 0.1 µM
SMILES: Cc1cc(NC(=O)c2ccc(C3CCCN3)cc2)nn1Cc1cc(Cl)ccc1OCC(C)C (configuration not stated)

IC50 [9]: 0.0794 µM
SMILES: Cc1cc(NC(=O)c2ccc3c(c2)CCNCC3)nn1Cc1cc(Cl)ccc1OCC(C)C

IC50 [9]: 0.0501 µM
Ki [10]: 0.0501 µM
SMILES: CCN1CCc2ccc(C(=O)Nc3cc(C)n(Cc4cc(Cl)ccc4OCC(C)C)n3)cc2CC1

IC50 [9]: 0.0251 µM
Ki [10]: 0.1 µM
SMILES: Cc1cc(C(=O)Nc2ccc(CNCCO)cc2)nn1Cc1cc(Cl)ccc1OCC(C)C

IC50 [9]: 0.0316 µM
SMILES: Cc1cc(C(=O)Nc2ccc(CO)cc2)nn1Cc1cc(Cl)ccc1OCC(C)C

IC50 [9]: 0.501 µM
SMILES: CCNCc1cccc(C(=O)Nc2cc(C)n(Cc3cc(Cl)ccc3OCC(C)C)n2)c1

IC50 [9]: 0.00631 µM
Ki [10]: 0.0398 µM
SMILES: Cc1cc(C(=O)Nc2ccc(CO)cc2)nn1Cc1cc(Cl)ccc1OCc1ccccc1

IC50 [9]: 0.251 µM
SMILES: Cc1cc(NC(=O)c2cccc(CN3CCOCC3)c2)nn1Cc1cc(Cl)ccc1OCC(C)C

IC50 [9]: 0.0501 µM
SMILES: Cc1cc(NC(=O)c2ccc(CN3CCOCC3)cc2)nn1Cc1cc(Cl)ccc1OCC(C)C

IC50 [9]: 0.00794 µM
solubility at 1 h [11]: > 1000 µg/mL
solubility at 1 h [24]: 905 µg/mL
solubility at 1 h [15]: 812 µg/mL
solubility at 1 h [12]: > 1000 µg/mL
SMILES: CCNCc1ccc(NC(=O)c2cc(C)n(Cc3cc(Cl)ccc3OCC(C)C)n2)cc1.Cl

IC50 [9]: 0.0158 µM
Ki [10]: 0.0794 µM
SMILES: Cc1cc(C(=O)Nc2ccc(CN(CCO)CCO)cc2)nn1Cc1cc(Cl)ccc1OCC(C)C

IC50 [9]: 0.00794 µM
SMILES: Cc1cc(C(=O)Nc2ccc(CN3CCOCC3)cc2)nn1Cc1cc(Cl)ccc1OCC(C)C
